Assay results from patent US4204038A, “Process for preparing antibiotics MA 144-M1 and MA 144-M2” (Zaidan Hojin Biseibutsu Kagaku Kenkyu Kai, priority 1976, dated 1980).
Converted amounts (≈) assume the structure as drawn. Counter-ions that a name gives are not always drawn. Like-named read-outs stand apart in the source and are kept apart here.

What was measured:
L1210 cells [1] = test: Protein synthesis in cultured L1210 cells; assay type: cell-based, mice; details: Mus musculus, L1210, read-out: % inhibition, Protein synthesis
Method: (§1) In this experiment, L1210 cells were inoculated in RPMI 1640 medium (Nissui, Roswell Park Memorial Institute 1640) containing 10% calf serum and cultivated at 37° C. for 3 days in a CO2 incubator, and MA 144-M1, MA 144-M2 and ^14 C-precursor were added at various concentrations. Effects on the synthesis of protein, RNA and DNA were indicated by the 50% inhibition concentration (μg./ml.) as shown in the following table.

Sarcoma 180 = test: Therapeutic effectiveness on Sarcoma 180 solid tumor; assay type: in vivo, dd mice; details: intraperitoneally, day 1 to day 10; for Weight of tumor: control 1.68
Method: (c) Therapeutic effectiveness on Sarcoma 180 solid tumor
dd mice were inoculated with 2×10^6 cells of Sarcoma 180, and drug was administered intraperitoneally from day 1 to day 10.

Mic. flavus = test: Minimum inhibitory concentration by the broth dilution method; assay type: cell-based; details: Micrococcus flavus, read-out: Minimum inhibitory concentration (MIC)
Text: (§2) (1) MA 144-M1 and MA 144-M2 have antimicrobial activity against various kinds of microorganisms.

Cory. bovis = test: as above; assay type: cell-based; details: Corynebacterium bovis, read-out: Minimum inhibitory concentration (MIC)
Text: as §2

Staph. aureus Smith = test: as above; assay type: cell-based; details: Staphylococcus aureus, read-out: Minimum inhibitory concentration (MIC)
Text: as §2

Bac. cereus ATCC 9634 = test: as above; assay type: cell-based; details: Bacillus cereus
Text: as §2

Can. albicans IAM 4905 = test: as above; assay type: cell-based; details: Candida albicans
Text: as §2

[2] = system: Bac. megaterium NRRL B-938; test: as above; assay type: cell-based; details: Priestia megaterium
Text: as §2

Bac. subtilis ATCC 6633 = test: as above; assay type: cell-based; details: Bacillus subtilis
Text: as §2

[3] = system: Mycobact. smegmatis ATCC 607; test: as above; assay type: cell-based; details: read-out: Minimum inhibitory concentration (MIC)
Text: as §2

Strept. pyogenes NY 5 = test: as above; assay type: cell-based; details: Streptococcus pyogenes
Text: as §2

Can. tropicalis IAM 4942 = test: as above; assay type: cell-based; details: Candida tropicalis
Text: as §2

Sarcina lutea ATCC 341 = test: as above; assay type: cell-based; details: Micrococcus luteus
Text: as §2

[4] = system: Ps. fluorescens NIH JB-254; test: as above; assay type: cell-based; details: Pseudomonas fluorescens
Text: as §2

Proteus morganii = test: as above; assay type: cell-based; details: Morganella morganii, read-out: Minimum inhibitory concentration (MIC)
Text: as §2

Staph. aureus FDA 209P = test: as above; assay type: cell-based; details: Staphylococcus aureus, FDA209P, read-out: Minimum inhibitory concentration (MIC)
Text: as §2

L1210 cells [5] = test: Cytotoxicity: growth of cultured L1210 cells; assay type: cell-based, mice; details: for IC50: Mus musculus, read-out: ID50, Growth; for inhibition of the growth of cultured L1210 cells: at the low concentration, in words
L1210 cells [6] = test: DNA synthesis in cultured L1210 cells; assay type: cell-based, mice; details: Mus musculus, L1210, read-out: ID50, DNA synthesis
Method: as §1

[7] = Basicity and lipophilicity
Toxicity = details: in words
in vivo [8] = details: Mouse
L1210 = test: Therapeutic effectiveness on L1210-bearing mice; assay type: in vivo; details: intraperitoneally, day 0 to day 10, CDF1-L1210
Method: (a) Therapeutic effectiveness on L1210-bearing mice
Drug was administered intraperitoneally

gram-positive bacteria = test: Antimicrobial activity against gram-positive bacteria; assay type: cell-based; details: in words
Text: as §2

Antitumor activity = assay type: in vivo; details: in words
L1210 cells [9] = test: RNA synthesis in cultured L1210 cells; assay type: cell-based, mice; details: for inhibition of RNA synthesis: L1210 cells, in words
Method: as §1

P388 = test: Therapeutic effectiveness on P388-bearing mice; assay type: in vivo; details: intraperitoneally, day 1 to day 9, CDF1-P388
Method: (b) Therapeutic effectiveness on P388-bearing mice
Drug was administered intraperitonally

in vivo [10] = details: Rat

## CCC1(O)CC(OC2CC(N(C)C)C(OC3CC(O)C(OC4CCC(O)C(C)O4)C(C)O3)C(C)O2)c2c(cc3c(c2O)C(=O)c2c(O)cccc2C3=O)C1C(=O)OC (stereo not shown) [MA 144-M1 hydrochloride salt]
Solubility
  solubility: slightly soluble in: slightly soluble in acetone and ethyl acetate
  solubility: soluble in: soluble in water, methanol and chloroform

## CCC1(O)CC(OC2CC(N(C)C)C(OC3CC(O)C(OC4CCC(O)C(C)O4)C(C)O3)C(C)O2)c2c(cc3c(c2O)C(=O)c2c(O)cccc2C3=O)C1C(=O)OC (stereo not shown) [MA 144-M1]
L1210 cells [1]
  inhibition at 10 µg/mL: 10%
Sarcoma 180; 0.3 mg/kg/day
  % Inhibition of tumor growth: 25.5%
  Weight of tumor: 1.25 g
Sarcoma 180; 0.6 mg/kg/day
  % Inhibition of tumor growth: 53.7%
  Weight of tumor: 0.78 g
Sarcoma 180; 1.25 mg/kg/day
  % Inhibition of tumor growth: 51.9%
  Weight of tumor: 0.81 g
Sarcoma 180; 2.5 mg/kg/day
  % Inhibition of tumor growth: 61.3%
  Weight of tumor: 0.65 g
Sarcoma 180; 5 mg/kg/day
  % Inhibition of tumor growth: 77.4%
  Weight of tumor: 0.38 g
Mic. flavus
  MIC: 0.2 µg/mL (≈ 0.246 µM)
Cory. bovis
  MIC: 0.4 µg/mL (≈ 0.491 µM)
Staph. aureus Smith
  MIC: 0.2 µg/mL (≈ 0.246 µM)
Bac. cereus ATCC 9634; ATCC9634, read-out: Minimum inhibitory concentration (MIC)
  MIC: 0.78 µg/mL (≈ 0.958 µM)
Can. albicans IAM 4905; IAM4905, read-out: Minimum inhibitory concentration (MIC)
  MIC: 100 µg/mL (≈ 123 µM)
[2]; NRRLB938, read-out: Minimum inhibitory concentration (MIC)
  MIC: 3.1 µg/mL (≈ 3.81 µM)
Bac. subtilis ATCC 6633; ATCC6633, read-out: Minimum inhibitory concentration (MIC)
  MIC: 0.4 µg/mL (≈ 0.491 µM)
[3]
  MIC: 2.5 µg/mL (≈ 3.07 µM)
Strept. pyogenes NY 5; NY5, read-out: Minimum inhibitory concentration (MIC)
  MIC: 1.25 µg/mL (≈ 1.54 µM)
Can. tropicalis IAM 4942; IAM4942, read-out: Minimum inhibitory concentration (MIC)
  MIC: > 100 µg/mL
Sarcina lutea ATCC 341; ATCC341, read-out: Minimum inhibitory concentration (MIC)
  MIC: 0.05 µg/mL (≈ 0.0614 µM)
[4]; NIHJB254, read-out: Minimum inhibitory concentration (MIC)
  MIC: > 100 µg/mL
Proteus morganii
  MIC: > 100 µg/mL
Staph. aureus FDA 209P
  MIC: 3.1 µg/mL (≈ 3.81 µM)
Solubility
  solubility: slightly soluble in: slightly soluble in water, diethyl ether and n-hexane
  solubility: soluble in: soluble in acidic water, dimethyl sulfoxide, methylcellosolve, methanol, ethanol, ethyl acetate, acetone, chloroform, benzene, toluene
L1210 cells [5]; L1210, 72 h
  IC50: 0.12 µg/mL (≈ 0.147 µM)
L1210 cells [5]
  inhibition of the growth of cultured L1210 cells: inhibited markedly
L1210 cells [6]
  IC50: 1.7 µg/mL (≈ 2.09 µM)
[7]
  basicity: Weakly basic
  lipophilicity: lipophilic
Toxicity
  toxicity: low toxicity
In vivo [8]; ip
  LD50: 35 mg/kg
In vivo [8]; iv
  LD50: 30 to 35 mg/kg
L1210; 0.156 mg/kg/day
  Prolongation of the survival time: 110%
L1210; 0.313 mg/kg/day
  Prolongation of the survival time: 110%
L1210; 0.625 mg/kg/day
  Prolongation of the survival time: 123%
L1210; 1.25 mg/kg/day
  Prolongation of the survival time: 137%
L1210; 2.5 mg/kg/day
  Prolongation of the survival time: 192%
L1210; 5 mg/kg/day
  Prolongation of the survival time: 200%
L1210; 10 mg/kg/day
  Prolongation of the survival time: 90%
gram-positive bacteria
  antimicrobial activity against gram-positive bacteria: show antimicrobial activity against gram-positive bacteria
Antitumor activity
  antitumor activity: marked antitumor activity
L1210 cells [9]
  inhibition of RNA synthesis: completely inhibited RNA synthesis
L1210 cells [9]; Mus musculus, L1210, read-out: ID50, RNA synthesis
  IC50: 0.7 µg/mL (≈ 0.86 µM)
P388; 0.313 mg/kg/day
  Prolongation of the survival time: 110%
P388; 0.625 mg/kg/day
  Prolongation of the survival time: 135%
P388; 1.25 mg/kg/day
  Prolongation of the survival time: 149%
P388; 2.5 mg/kg/day
  Prolongation of the survival time: 184%
P388; 5 mg/kg/day
  Prolongation of the survival time: 100%
In vivo [10]; ip
  LD50: 25 to 30 mg/kg
In vivo [10]; iv
  LD50: 25 to 30 mg/kg

## CCC1(O)CC(OC2CC(N(C)C)C(OC3CC(O)C(OC4CCC(O)C(C)O4)C(C)O3)C(C)O2)c2c(cc3c(c2O)C(=O)c2c(O)ccc(O)c2C3=O)C1C(=O)OC (stereo not shown) [MA 144-M2]
Sarcoma 180; 0.3 mg/kg/day
  % Inhibition of tumor growth: 16%
  Weight of tumor: 1.41 g
Sarcoma 180; 0.6 mg/kg/day
  % Inhibition of tumor growth: 46.5%
  Weight of tumor: 0.90 g
Sarcoma 180; 1.25 mg/kg/day
  % Inhibition of tumor growth: 76.8%
  Weight of tumor: 0.39 g
Sarcoma 180; 2.5 mg/kg/day
  % Inhibition of tumor growth: 83.3%
  Weight of tumor: 0.28 g
Sarcoma 180; 5 mg/kg/day
  Weight of tumor: toxic
Mic. flavus; Mic. flavus, broth dilution
  MIC: 0.2 µg/mL (≈ 0.241 µM)
Cory. bovis; Cory. bovis, broth dilution
  MIC: 0.1 µg/mL (≈ 0.12 µM)
Staph. aureus Smith; Staph. aureus Smith, broth dilution
  MIC: 0.1 µg/mL (≈ 0.12 µM)
Bac. cereus ATCC 9634; ATCC9634, Bac. cereus ATCC 9634, broth dilution, read-out: Minimum inhibitory concentration (MIC)
  MIC: 0.05 µg/mL (≈ 0.0602 µM)
Can. albicans IAM 4905; IAM4905, Can. albicans IAM 4905, broth dilution, read-out: Minimum inhibitory concentration (MIC)
  MIC: 50 µg/mL (≈ 60.2 µM)
[2]; NRRLB938, Bac. megaterium NRRL B-938, broth dilution, read-out: Minimum inhibitory concentration (MIC)
  MIC: 0.78 µg/mL (≈ 0.94 µM)
Bac. subtilis ATCC 6633; ATCC6633, Bac. subtilis ATCC 6633, broth dilution, read-out: Minimum inhibitory concentration (MIC)
  MIC: 0.05 µg/mL (≈ 0.0602 µM)
[3]; Mycobact. smegmatis ATCC 607, broth dilution
  MIC: 1.25 µg/mL (≈ 1.51 µM)
Strept. pyogenes NY 5; NY5, Strept. pyogenes NY 5, broth dilution, read-out: Minimum inhibitory concentration (MIC)
  MIC: 0.63 µg/mL (≈ 0.759 µM)
Can. tropicalis IAM 4942; IAM4942, Can. tropicalis IAM 4942, broth dilution, read-out: Minimum inhibitory concentration (MIC)
  MIC: 100 µg/mL (≈ 120 µM)
Sarcina lutea ATCC 341; ATCC341, Sarcina lutea ATCC 341, broth dilution, read-out: Minimum inhibitory concentration (MIC)
  MIC: 0.05 µg/mL (≈ 0.0602 µM)
[4]; NIHJB254, Ps. fluorescens NIH JB-254, broth dilution, read-out: Minimum inhibitory concentration (MIC)
  MIC: > 100 µg/mL
Proteus morganii; Proteus morganii (the Institute for Infectious Diseases), broth dilution
  MIC: > 100 µg/mL
Staph. aureus FDA 209P; Staph. aureus FDA 209P, broth dilution
  MIC: 0.78 µg/mL (≈ 0.94 µM)
L1210 cells [5]; 72 h, cultured L1210 cells, 37° C., 3 days
  IC50: 0.05 µg/mL (≈ 0.0602 µM)
L1210 cells [5]
  inhibition of the growth of cultured L1210 cells: inhibited markedly
[7]
  basicity: Weakly basic
Toxicity
  toxicity: low toxicity
In vivo [8]; ip
  LD50: 12.5 mg/kg
In vivo [8]; iv
  LD50: 12 to 20 mg/kg
L1210; 0.156 mg/kg/day
  Prolongation of the survival time: 116%
L1210; 0.313 mg/kg/day
  Prolongation of the survival time: 144%
L1210; 0.625 mg/kg/day
  Prolongation of the survival time: 192%
L1210; 1.25 mg/kg/day
  Prolongation of the survival time: 200%
L1210; 2.5 mg/kg/day
  Prolongation of the survival time: 85%
L1210; 5 mg/kg/day
  Prolongation of the survival time: 46%
gram-positive bacteria
  antimicrobial activity against gram-positive bacteria: show antimicrobial activity against gram-positive bacteria
Antitumor activity
  antitumor activity: marked antitumor activity
L1210 cells [9]
  inhibition of RNA synthesis: completely inhibited RNA synthesis
P388; 0.313 mg/kg/day
  Prolongation of the survival time: 125%
P388; 0.625 mg/kg/day
  Prolongation of the survival time: 148%
P388; 1.25 mg/kg/day
  Prolongation of the survival time: 206%
P388; 2.5 mg/kg/day
  Prolongation of the survival time: 83%
P388; 5 mg/kg/day
  Prolongation of the survival time: 57%
In vivo [10]; ip
  LD50: 10 to 15 mg/kg
In vivo [10]; iv
  LD50: 10 to 15 mg/kg
